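Dose response: 5 concentrations. Exposure: 48 h. Format: 96-well plates. Endpoint: linear interpolation; highest concentration if not reached. Here, GI50 denotes the concentration required for 50% inhibition of growth.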 The source made the active and inactive calls. No stated cut-off is given here; in the data, active = GI50 up to about 1.1 µM and inactive = higher.
Columns and labels:
Assay in all cases: inhibition of tumour cell growth, NCI panel, 48 h
EKVX = tested on: EKVX
HT-29 = tested on: HT-29
IGROV-1 = tested on: IGROV-1
SK-MEL-28 = tested on: SK-MEL-28
NCI-H460 = tested on: NCI-H460
SK-OV-3 = tested on: SK-OV-3
OVCAR-8 = tested on: OVCAR-8
RPMI-8226 = tested on: RPMI-8226
SN12C = tested on: SN12C
MDA-MB-231 = tested on: MDA-MB-231
NCI-H226 = tested on: NCI-H226
MOLT-4 = tested on: MOLT-4
A498 = tested on: A498
CAKI-1 = tested on: CAKI-1
SK-MEL-2 = tested on: SK-MEL-2
T47D = tested on: T47D
KM12 = tested on: KM12
MDA-N = tested on: MDA-N
SK-MEL-5 = tested on: SK-MEL-5
UACC-257 = tested on: UACC-257
Malme-3M = tested on: Malme-3M
SF-539 = tested on: SF-539
SW-620 = tested on: SW-620
UO-31 = tested on: UO-31
NCI-H23 = tested on: NCI-H23
SNB-19 = tested on: SNB-19
LOX IMVI = tested on: LOX IMVI
SF-268 = tested on: SF-268
CCRF-CEM = tested on: CCRF-CEM
DU-145 = tested on: DU-145
TK-10 = tested on: TK-10
ACHN = tested on: ACHN
HCT-116 = tested on: HCT-116
COLO 205 = tested on: COLO 205
UACC-62 = tested on: UACC-62
MDA-MB-435 = tested on: MDA-MB-435
Hs-578T = tested on: Hs-578T
M14 = tested on: M14
NCI/ADR-RES = tested on: NCI/ADR-RES
SNB-75 = tested on: SNB-75
NCI-H522 = tested on: NCI-H522
SF-295 = tested on: SF-295
786-0 = tested on: 786-0
MCF7 = tested on: MCF7
HCC 2998 = tested on: HCC 2998
BT-549 = tested on: BT-549
OVCAR-4 = tested on: OVCAR-4
HL-60 = tested on: HL-60
OVCAR-3 = tested on: OVCAR-3
OVCAR-5 = tested on: OVCAR-5
U-251 = tested on: U-251
A549 = tested on: A549
HCT-15 = tested on: HCT-15
PC-3 = tested on: PC-3
HOP-92 = tested on: HOP-92
K562 = tested on: K562
HOP-62 = tested on: HOP-62
RXF 393 = tested on: RXF 393

How did the GI50 (EKVX) turn out when CCC12CCCN3CCc4c(n(c5ccccc45)C(O)(C(=O)OC)C1)C32 (configuration not stated) was run?
Its GI50 is > 100 µM (inactive).

What about the GI50 (HT-29) of the same compound?
Its GI50 is > 100 µM (inactive).

What about the GI50 (IGROV-1) of the same compound?
Its GI50 is > 100 µM (inactive).

What about the GI50 (SK-MEL-28) of the same compound?
The GI50 was > 100 µM (inactive).

What about the GI50 (NCI-H460) of the same compound?
Its GI50 is > 100 µM (inactive).

And the GI50 (SK-OV-3)?
The GI50 was > 100 µM (inactive).

And the GI50 (OVCAR-8)?
Its GI50 is > 100 µM (inactive).

What about the GI50 (RPMI-8226) of the same compound?
The GI50 was > 100 µM (inactive).

And the GI50 (SN12C)?
Its GI50 is > 100 µM (inactive).

What about the GI50 (MDA-MB-231) of the same compound?
Its GI50 is > 100 µM (inactive).

And the GI50 (NCI-H226)?
Its GI50 is > 100 µM (inactive).

What about the GI50 (MOLT-4) of the same compound?
The GI50 was > 100 µM (inactive).

And the GI50 (A498)?
The GI50 was > 100 µM (inactive).

And the GI50 (CAKI-1)?
Its GI50 is > 100 µM (inactive).

What about the GI50 (SK-MEL-2) of the same compound?
The GI50 was > 100 µM (inactive).

And the GI50 (T47D)?
The GI50 was > 100 µM (inactive).

What about the GI50 (KM12) of the same compound?
The GI50 was > 100 µM (inactive).

And the GI50 (MDA-N)?
Its GI50 is > 100 µM (inactive).

What about the GI50 (SK-MEL-5) of the same compound?
The GI50 was > 100 µM (inactive).

What about the GI50 (UACC-257) of the same compound?
The GI50 was > 100 µM (inactive).

And the GI50 (Malme-3M)?
Its GI50 is > 100 µM (inactive).

What about the GI50 (SF-539) of the same compound?
Its GI50 is > 100 µM (inactive).

What about the GI50 (SW-620) of the same compound?
Its GI50 is > 100 µM (inactive).

And the GI50 (UO-31)?
The GI50 was > 100 µM (inactive).

And the GI50 (NCI-H23)?
The GI50 was > 100 µM (inactive).

What about the GI50 (SNB-19) of the same compound?
Its GI50 is > 100 µM (inactive).

What about the GI50 (LOX IMVI) of the same compound?
Its GI50 is > 100 µM (inactive).

What about the GI50 (SF-268) of the same compound?
The GI50 was > 100 µM (inactive).

What about the GI50 (CCRF-CEM) of the same compound?
Its GI50 is > 100 µM (inactive).

And the GI50 (DU-145)?
Its GI50 is > 100 µM (inactive).

What about the GI50 (TK-10) of the same compound?
Its GI50 is > 100 µM (inactive).

What about the GI50 (ACHN) of the same compound?
The GI50 was > 100 µM (inactive).

And the GI50 (HCT-116)?
Its GI50 is > 100 µM (inactive).

What about the GI50 (COLO 205) of the same compound?
The GI50 was > 100 µM (inactive).

What about the GI50 (UACC-62) of the same compound?
Its GI50 is > 100 µM (inactive).

What about the GI50 (MDA-MB-435) of the same compound?
Its GI50 is > 100 µM (inactive).

And the GI50 (Hs-578T)?
The GI50 was > 100 µM (inactive).

And the GI50 (M14)?
The GI50 was > 100 µM (inactive).

And the GI50 (NCI/ADR-RES)?
The GI50 was > 100 µM (inactive).

And the GI50 (SNB-75)?
The GI50 was > 100 µM (inactive).

What about the GI50 (NCI-H522) of the same compound?
The GI50 was > 100 µM (inactive).

What about the GI50 (SF-295) of the same compound?
The GI50 was > 100 µM (inactive).

What about the GI50 (786-0) of the same compound?
The GI50 was > 100 µM (inactive).

What about the GI50 (MCF7) of the same compound?
The GI50 was > 100 µM (inactive).

What about the GI50 (HCC 2998) of the same compound?
Its GI50 is > 100 µM (inactive).

What about the GI50 (BT-549) of the same compound?
The GI50 was > 100 µM (inactive).

What about the GI50 (OVCAR-4) of the same compound?
The GI50 was > 100 µM (inactive).

What about the GI50 (HL-60) of the same compound?
The GI50 was > 100 µM (inactive).

What about the GI50 (OVCAR-3) of the same compound?
Its GI50 is > 100 µM (inactive).

What about the GI50 (OVCAR-5) of the same compound?
The GI50 was > 100 µM (inactive).

What about the GI50 (U-251) of the same compound?
Its GI50 is > 100 µM (inactive).

And the GI50 (A549)?
The GI50 was > 100 µM (inactive).

What about the GI50 (HCT-15) of the same compound?
The GI50 was > 100 µM.

What about the GI50 (PC-3) of the same compound?
Its GI50 is > 100 µM (inactive).

And the GI50 (HOP-92)?
Its GI50 is > 100 µM (inactive).

O=C(CCc1ccccc1)On1c(-c2ccccc2)nc2ccccc2c1=S was tested. Which GI50 (EKVX) did it give?
Its GI50 is 6.78 µM (inactive).

And the GI50 (HT-29)?
The GI50 was 3.85 µM (inactive).

What about the GI50 (IGROV-1) of the same compound?
Its GI50 is 0.515 µM (active).

And the GI50 (SK-MEL-28)?
The GI50 was 16.1 µM (inactive).

What about the GI50 (NCI-H460) of the same compound?
Its GI50 is 1.35 µM (inactive).

What about the GI50 (SK-OV-3) of the same compound?
Its GI50 is 6.84 µM (inactive).

What about the GI50 (OVCAR-8) of the same compound?
Its GI50 is 4.44 µM (inactive).

What about the GI50 (RPMI-8226) of the same compound?
Its GI50 is 7.28 µM (inactive).

What about the GI50 (SN12C) of the same compound?
The GI50 was 11.9 µM (inactive).

And the GI50 (MDA-MB-231)?
Its GI50 is 51.5 µM (inactive).

And the GI50 (NCI-H226)?
The GI50 was 5.62 µM (inactive).

And the GI50 (MOLT-4)?
The GI50 was 0.455 µM (active).

What about the GI50 (A498) of the same compound?
Its GI50 is 65.8 µM (inactive).

And the GI50 (CAKI-1)?
The GI50 was 5.68 µM (inactive).

What about the GI50 (SK-MEL-2) of the same compound?
Its GI50 is 8.81 µM (inactive).

What about the GI50 (T47D) of the same compound?
The GI50 was 6.79 µM (inactive).

What about the GI50 (KM12) of the same compound?
Its GI50 is 3.87 µM (inactive).

What about the GI50 (MDA-N) of the same compound?
Its GI50 is 12.9 µM (inactive).

And the GI50 (SK-MEL-5)?
Its GI50 is 4.47 µM (inactive).

What about the GI50 (UACC-257) of the same compound?
Its GI50 is 22.9 µM (inactive).

What about the GI50 (Malme-3M) of the same compound?
The GI50 was 3.61 µM (inactive).

And the GI50 (SF-539)?
The GI50 was 3.92 µM (inactive).

And the GI50 (SW-620)?
The GI50 was 8.26 µM (inactive).

What about the GI50 (UO-31) of the same compound?
Its GI50 is 3.66 µM (inactive).

And the GI50 (NCI-H23)?
Its GI50 is 4.3 µM (inactive).

And the GI50 (SNB-19)?
The GI50 was 14.8 µM (inactive).

What about the GI50 (LOX IMVI) of the same compound?
Its GI50 is 0.456 µM (active).

And the GI50 (SF-268)?
Its GI50 is 3.07 µM (inactive).

What about the GI50 (CCRF-CEM) of the same compound?
Its GI50 is 1.77 µM (inactive).

And the GI50 (DU-145)?
Its GI50 is 9.71 µM (inactive).

And the GI50 (TK-10)?
The GI50 was 18.9 µM (inactive).

What about the GI50 (ACHN) of the same compound?
Its GI50 is 5.69 µM (inactive).

And the GI50 (HCT-116)?
Its GI50 is 2.01 µM (inactive).

And the GI50 (K562)?
The GI50 was 4.6 µM (inactive).

What about the GI50 (COLO 205) of the same compound?
The GI50 was 4.28 µM (inactive).

And the GI50 (UACC-62)?
Its GI50 is 3.94 µM (inactive).

And the GI50 (HOP-62)?
Its GI50 is 3.66 µM (inactive).

What about the GI50 (MDA-MB-435) of the same compound?
Its GI50 is 8.18 µM (inactive).

And the GI50 (Hs-578T)?
The GI50 was 13.1 µM (inactive).

And the GI50 (M14)?
The GI50 was 5.57 µM (inactive).

What about the GI50 (NCI/ADR-RES) of the same compound?
Its GI50 is 4.08 µM (inactive).

And the GI50 (SNB-75)?
Its GI50 is 9.77 µM (inactive).

What about the GI50 (RXF 393) of the same compound?
Its GI50 is 18.6 µM (inactive).

What about the GI50 (SF-295) of the same compound?
Its GI50 is 3.99 µM (inactive).

And the GI50 (786-0)?
Its GI50 is 2.06 µM (inactive).

What about the GI50 (MCF7) of the same compound?
Its GI50 is 4.54 µM (inactive).

What about the GI50 (HCC 2998) of the same compound?
The GI50 was 4.52 µM (inactive).

And the GI50 (BT-549)?
The GI50 was 14.5 µM (inactive).

What about the GI50 (OVCAR-4) of the same compound?
The GI50 was 2.9 µM (inactive).

What about the GI50 (HL-60) of the same compound?
The GI50 was 3.05 µM (inactive).

What about the GI50 (OVCAR-3) of the same compound?
The GI50 was 4.99 µM (inactive).

And the GI50 (OVCAR-5)?
The GI50 was 18.9 µM (inactive).

And the GI50 (U-251)?
The GI50 was 4.38 µM (inactive).

And the GI50 (A549)?
The GI50 was 3.65 µM (inactive).

And the GI50 (HCT-15)?
The GI50 was 2.32 µM.

What about the GI50 (PC-3) of the same compound?
The GI50 was 4.73 µM (inactive).

What about the GI50 (HOP-92) of the same compound?
The GI50 was 42.7 µM (inactive).

— ChEMBL document CHEMBL1201862, “PubChem BioAssay data set” (2004)
